Results on one molecule are retold here after paper PMC6380468, “Investigations on small molecule inhibitors targeting the histone H3K4 tri-methyllysine binding PHD-finger of JmjC histone demethylases” (Bioorganic & Medicinal Chemistry, 2018).

One experiment has as its target T1, His-KDM5A(PHD3) (Homo sapiens, UniProt P29375).
T1 construct: KDM5A(PHD3) (1542 – 1660), encoded by a pGTLV2 vector; made in house; host or cells: E. coli Rosetta 2(DE3)pLysS
T1 sequence (P29375 1542-1660): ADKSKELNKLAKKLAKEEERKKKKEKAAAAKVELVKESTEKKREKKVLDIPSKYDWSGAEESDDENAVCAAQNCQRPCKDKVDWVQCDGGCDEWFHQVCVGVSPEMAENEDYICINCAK
Put plainly: AlphaScreen displacement assay, H3K4me3-Bn from His-KDM5A(PHD3). The format is binding. As for the experimental part:
AlphaScreen is a homogenous bead-based assay used to study protein-protein interactions.[28] […] AlphaScreen beads were then added and incubated for 1 h. Changes in the AlphaScreen signals with increasing inhibitor concentrations were then measured to quantify the level of KDM5A(PHD3) and H3K4me3 binding, and IC50 values were determined.
His-tagged PHD finger constructs and H3K4me3-Bn peptides were diluted into AlphaScreen assay buffer (50mM HEPES, 150mM NaCl, 0.1% BSA, 0.01% Tween20, pH 7.5). An 8-point 1:2 dilution series was made for both protein and peptide. With a multichannel pipette (LTS P10), 5 µL protein was dispensed into 8 columns of a 384-well plate, followed by 5 µL of 4% DMSO in AlphaScreen assay buffer. The mixture was incubated at room temperature for 15 minutes, followed by dispensing 5 µL peptide across 8 rows of the 384-well plate, forming a cross-gradient of protein and peptide. The contents were incubated for 30 minutes at room temperature, followed by the addition of 5 µL of a mixture of AlphaScreen Streptavidin donor beads and Nickel Chelate acceptor beads in AlphaScreen assay buffer (20 µg/mL final). The samples were incubated for 60-120 minutes at room temperature in the dark, followed by measurement of luminescence on a BMG Labtech Pherastar plate reader (Software Ver. 5.30 R3, Firmware Ver. 1.21). The data was plotted in Prism Ver 7.01 (GraphPad Software, Inc.) and fitted to a linear model in order to determine the optimal concentration of protein and peptide within the linear signal range for each reader domain.
(§1) For peptide displacement assays, 5 µL of the inhibitor dilution series (at a concentration of 4% DMSO in AlphaScreen assay buffer) was pre-incubated with 5 µL of the protein at RT for 15 minutes. Peptide solution (5 µL) was added and incubated for 30 minutes at RT, followed by the addition of 5 µL of a mixture of AlphaScreen Streptavidin donor beads and Nickel Chelate acceptor beads in AlphaScreen assay buffer (20 µg/mL final). The contents were incubated for 60-120 minutes at RT in the dark, followed by measurement of luminescence on a BMG Labtech Pherastar plate reader (Software Ver. 5.30 R3, Firmware Ver. 1.21). The data was plotted in Prism Ver 7.01 (GraphPad Software, Inc.) and fitted to a Log(inhibitor) v/s response – variable slope model in order to obtain IC50 values.
In general terms: In Alpha technology, singlet oxygen from a donor bead excites a nearby acceptor bead.

A short description of experiment [1]: AlphaScreen biotin-His6 counterscreen. The conditions noted are these: AlphaScreen interference counterscreen with biotin-His6; unit inferred; DNC = data did not converge to binding model; NM = not measurable within the solubility range.
Another experiment concerns the target T2, KDM7A(PHD) (Homo sapiens, UniProt Q6ZMT4).
T2 construct: made in house
T2 sequence (Q6ZMT4 37-88 limits assumed): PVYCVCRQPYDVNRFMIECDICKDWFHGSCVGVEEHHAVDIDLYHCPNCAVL
In words: AlphaScreen displacement of H3K4me3-Bn from His-KDM7A(PHD). The format is binding. The following applies: AlphaScreen; 6.25 nM KDM7A(PHD) and 25 nM peptide; n ≥ 3; read-out: IC50 for displacement of H3K4me3-Bn from His-KDM7A(PHD). As for the experimental part: as §1

The next experiment has as its target T3, KDM7B(PHD) (Homo sapiens, UniProt Q9UPP1).
T3 construct: made in house
T3 sequence (Q9UPP1 41-92 limits assumed): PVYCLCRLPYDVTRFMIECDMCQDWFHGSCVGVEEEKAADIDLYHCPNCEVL
Put plainly: AlphaScreen displacement of H3K4me3-Bn from His-KDM7B(PHD). The following applies: AlphaScreen; 12.5 nM protein and 12.5 nM peptide; n ≥ 3; read-out: IC50 for displacement of H3K4me3-Bn from His-KDM7B(PHD). Format: binding. As for the experimental part:
as §1

In a further experiment the target is T4, KDM7C(PHD) (Homo sapiens, UniProt O75151).
T4 construct: made in house
T4 sequence (O75151 5-56 limits assumed): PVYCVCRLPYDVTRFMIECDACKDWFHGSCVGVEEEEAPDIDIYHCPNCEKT
In words: AlphaScreen displacement of H3K4me3-Bn from His-KDM7C(PHD). The format is binding. The following applies: AlphaScreen; 25 nM KDM7C(PHD) and 6.25 nM peptide; n ≥ 3; read-out: IC50 for displacement of H3K4me3-Bn from His-KDM7C(PHD). Here is the method:
as §1

The target of experiment [2] is KDM7A (PHD-JmjC) (Homo sapiens, UniProt Q6ZMT4). In words: AlphaScreen displacement of H3K4me3-Bn from His-KDM7A(PHD-JmjC). The following applies: AlphaScreen displacement of H3K4me3-Bn; n = 3; NI = No inhibition seen at 100 μM; read-out: IC50 KDM7A (PHD-JmjC) (Displacement). The format is binding. As for the experimental part: (§2) A dual-domain construct of KDM7A/B(PHD-JmjC), consisting of a JmjC domain in addition to the PHD-finger (Fig. 1B), was used to test for allosteric inhibition through binding at the PHD-finger.
as §1

In experiment [3] the target is T5, KDM7B (PHD-JmjC) (Homo sapiens, UniProt Q9UPP1).
T5 construct: A dual-domain construct of KDM7A/B(PHD-JmjC), consisting of a JmjC domain in addition to the PHD-finger; His; made in house
In words: AlphaScreen displacement of H3K4me3-Bn from His-KDM7B(PHD-JmjC). The format is binding. The following applies: AlphaScreen displacement of H3K4me3-Bn; n = 3; NI = No inhibition seen at 100 μM; read-out: IC50 KDM7B (PHD-JmjC) (Displacement). Here is the method: as §2, §1

The subject of experiment [4] is KDM7A (PHD-JmjC). Put plainly: MALDI-TOF MS H3K9me2 demethylation assay, KDM7A(PHD-JmjC). The format is biochemical, human. The following applies: at 100 µM, substrate H3(1–15)K9me2. Here is the method:
Final concentrations were: 1mM ascorbate, 50 µM (NH4)2Fe(II)(SO4)2 and 200 µM 2OG. The mixture was quenched using formic acid after 10 minutes (KDM7A) or 5 minutes (KDM7B).

The target in experiment [5] is T5, KDM7B (PHD-JmjC). In words: MALDI-TOF MS H3K9me2 demethylation assay, KDM7B(PHD-JmjC). The conditions noted are these: at 100 µM; MALDI-TOF MS; substrate H3(1–5)K4me3K9me2; read-out: KDM7B (PHD-JmjC) (Catalytic), inhibition of H3K9me2 demethylation. Format: biochemical. As for the experimental part: H3(1–15)K9me2 and H3(1–5)K4me3K9me2 were used as substrates for KDM7A(PHD-JmjC) and KDM7B(PHD-JmjC), respectively. […] For KDM7B(PHD-JmjC), inhibition was most pronounced for 1a (95%) and 2a (89%) whilst others inhibited more weakly (Table 4).
For KDM7(PHD-JmjC) assays, 2.5 µM enzyme was used, with 5 µM H3(1-15)K9me2 peptide substrate for KDM7A or H3(1-15)K4me3K9me2 for KDM7B. Final concentrations were: 1mM ascorbate, 50 µM (NH4)2Fe(II)(SO4)2 and 200 µM 2OG. The mixture was quenched using formic acid after 10 minutes (KDM7A) or 5 minutes (KDM7B).

The subject of the next experiment is KDM5A(PHD3). Also noted: method as in PMID 22994852. The following applies: HaloTag-based peptide displacement assay; read-out: IC50 for inhibition of binding of KDM5A(PHD3) to H3K4me3; cited from earlier work.

Where “and” joins values, the source holds several entries; their conditions need not be identical. Equal values may be shown once. Some results are limits rather than exact numbers.

T5 sequence (Q9UPP1 37-483 limits assumed): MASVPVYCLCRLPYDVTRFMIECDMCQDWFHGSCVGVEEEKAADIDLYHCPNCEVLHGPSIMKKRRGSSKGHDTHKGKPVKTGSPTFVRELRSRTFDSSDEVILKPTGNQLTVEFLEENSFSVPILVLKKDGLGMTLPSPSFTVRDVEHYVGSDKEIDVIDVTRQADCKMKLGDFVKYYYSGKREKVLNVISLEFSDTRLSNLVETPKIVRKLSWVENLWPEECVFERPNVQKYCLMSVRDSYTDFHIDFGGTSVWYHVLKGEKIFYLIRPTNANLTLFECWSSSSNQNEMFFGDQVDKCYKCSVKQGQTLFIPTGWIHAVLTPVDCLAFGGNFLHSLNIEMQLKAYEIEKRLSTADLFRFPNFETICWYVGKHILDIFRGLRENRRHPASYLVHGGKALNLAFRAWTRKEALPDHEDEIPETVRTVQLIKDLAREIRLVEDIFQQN
Chain of KDM7A (PHD-JmjC) (Homo sapiens, UniProt Q6ZMT4) (Q6ZMT4 37-386 limits assumed): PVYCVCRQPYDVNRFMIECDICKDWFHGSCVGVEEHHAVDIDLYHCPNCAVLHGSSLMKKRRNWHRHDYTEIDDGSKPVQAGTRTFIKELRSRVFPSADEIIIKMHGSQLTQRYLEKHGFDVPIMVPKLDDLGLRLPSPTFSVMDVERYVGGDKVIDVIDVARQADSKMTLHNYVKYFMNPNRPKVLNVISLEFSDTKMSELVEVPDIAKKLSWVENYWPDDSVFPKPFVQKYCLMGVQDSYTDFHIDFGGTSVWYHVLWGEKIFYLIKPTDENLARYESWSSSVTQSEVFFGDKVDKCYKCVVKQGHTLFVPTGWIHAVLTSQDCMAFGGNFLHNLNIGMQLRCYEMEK

Broadly, the IC50 is the point on the concentration scale where inhibition reaches its midpoint. The inhibition is how much of the control response was suppressed. As to `CCCCc1oc2ccccc2c1C(=O)c1cc(I)c(OCC[N+](C)(C)C)c(I)c1.[I-]` [WAG-003, 2-(4-(2-Butylbenzofuran-3-carbonyl)-2,6-diiodophenoxy)-N,N,N-trimethylethanaminium iodide, reference compound], the IC50 on His-KDM5A(PHD3) (AlphaScreen, 25 nM protein and 25 nM peptide, average ± StdDev, n ≥ 3, NM = not measurable within the solubility range, read-out: IC50 for displacement of H3K4me3-Bn from His-KDM5A(PHD3)) was 1660 ± 490 µM; in experiment [1] it was 11300 ± 1260 µM; at KDM7A(PHD), 2230 ± 790 µM; on KDM7B(PHD), 307 ± 76 µM; on KDM7C(PHD), 976 ± 146 µM; at KDM7A (PHD-JmjC) [2] it was above 100 µM. Besides, the IC50 at KDM7B (PHD-JmjC) [3] is above 100 µM; in the experiment with KDM5A(PHD3) it was 30 to 40 µM and 30 µM. Also, the “fold higher IC50 in this AlphaScreen assay than reported with the Halo-tag assay” value at His-KDM5A(PHD3) (KDM5A(PHD3), compared with reported 30–40 µM) is recorded as above 50 fold. For the same molecule, the “KDM7A (PHD-JmjC) (Catalytic), inhibition of H3K9me2 demethylation” value in the experiment with KDM7A (PHD-JmjC) [4] is 17% (100 µM). Also, the inhibition at 100 µM at KDM7B (PHD-JmjC) [5] was 22%.
